# Data taken from ChEMBL document CHEMBL4609989, “Synthesis and antileishmanial activity of fluorinated rhodacyanine analogues: The 'fluorine-walk' analysis” (Bioorg Med Chem, 2020).
# Activity calls are given as the source filed them. The calls are words filed in the database; no cut-off is given here.
# Columns and labels:
# [1] = system: Leishmania martiniquensis; assay: Antileishmanial activity against Leishmania martiniquensis MHOM/MQ/92/MAR promastigote at 0.1 uM incubated for 72 hrs by resazurin dye based colorimetric assay relative to control; assay type: functional; conditions: for inhibition at 0.1 µM: Leishmania martiniquensis, MHOM/MQ/92/MAR, 72 h
# [2] = system: Leishmania martiniquensis; assay: Antileishmanial activity against Leishmania martiniquensis MHOM/MQ/92/MAR promastigote at 0.25 uM incubated for 72 hrs by resazurin dye based colorimetric assay relative to control; assay type: functional; conditions: for inhibition at 0.25 µM: Leishmania martiniquensis, MHOM/MQ/92/MAR, 72 h
# [3] = system: Leishmania orientalis; assay: Antileishmanial activity against Leishmania orientalis MHOM/TH/2010/PCM2 promastigote at 0.1 uM incubated for 72 hrs by resazurin dye based colorimetric assay relative to control; assay type: functional; conditions: for inhibition at 0.1 µM: Leishmania orientalis, MHOM/TH/2010/PCM2, 72 h
# [4] = system: Leishmania orientalis; assay: Antileishmanial activity against Leishmania orientalis MHOM/TH/2010/PCM2 promastigote at 0.25 uM incubated for 72 hrs by resazurin dye based colorimetric assay relative to control; assay type: functional; conditions: Leishmania orientalis, MHOM/TH/2010/PCM2, 72 h
# [5] = system: Leishmania orientalis; assay: Antileishmanial activity against Leishmania orientalis MHOM/TH/2010/PCM2 axenic amastigotes at 0.25 uM incubated for 72 hrs by resazurin dye based colorimetric assay relative to control; assay type: functional; conditions: Leishmania orientalis, MHOM/TH/2010/PCM2, 72 h
# [6] = system: J774.A1; assay: Cytotoxicity against mouse J774A.1 cells assessed as reduction in cell viability at 0.25 uM incubated for 72 hrs by colorimetric assay relative to control; assay type: cell-based; conditions: j774.a1, 72 h
# [7] = system: J774.A1; assay: Cytotoxicity against mouse J774A.1 cells assessed as reduction in cell viability at 4.0 uM incubated for 72 hrs by colorimetric assay relative to control; assay type: cell-based; conditions: j774.a1, 72 h
# [8] = system: Leishmania martiniquensis; assay: Antileishmanial activity against Leishmania martiniquensis MHOM/MQ/92/MAR promastigote incubated for 72 hrs by resazurin dye based colorimetric assay; assay type: functional, organism-based; conditions: Leishmania martiniquensis, MHOM/MQ/92/MAR, 72 h
# [9] = system: Leishmania orientalis; assay: Antileishmanial activity against Leishmania orientalis MHOM/TH/2010/PCM2 promastigote incubated for 72 hrs by resazurin dye based colorimetric assay; assay type: functional, organism-based; conditions: Leishmania orientalis, MHOM/TH/2010/PCM2, 72 h
# [10] = system: Leishmania orientalis; assay: Antileishmanial activity against Leishmania orientalis MHOM/TH/2010/PCM2 axenic amastigotes incubated for 72 hrs by resazurin dye based colorimetric assay; assay type: functional, organism-based; conditions: Leishmania orientalis, MHOM/TH/2010/PCM2, 72 h
Structure (SMILES),inhibition at 0.1 µM [1],inhibition at 0.25 µM [2],inhibition at 0.1 µM [3],inhibition at 0.25 µM [4],inhibition at 0.25 µM [5],Activity [6],Activity [7],inhibition [1],inhibition [2],IC50 [8],inhibition [3],IC50 [9],IC50 [10]
CCn1c(=O)/c(=C/C=C2\Sc3ccccc3N2C)s/c1=C\c1sc2c(F)cccc2[n+]1C.[Cl-],41.1%,85.2%,13.9%,88.9%,42.9%,Non-Toxic,88.5%,–,–,–,–,–,–
CCCCCCCCCCCCCCCCOP(=O)([O-])OCC[N+](C)(C)C [MILTEFOSINE],–,–,–,4%,24.9%,7.3%,12.4%,inactive,inactive,15800 nM,inactive,–,–
CCn1c(=O)/c(=C/C=C2\Sc3cc(F)ccc3N2C)s/c1=C\c1sc2cc(F)ccc2[n+]1C.[Cl-],17.6%,62.9%,1.9%,76%,62.1%,Non-Toxic,46%,–,–,–,–,–,–
CCn1c(=O)/c(=C/C=C2\Sc3ccccc3N2C)s/c1=C\c1sc2cc(C(F)(F)F)ccc2[n+]1C.[Cl-],10.5%,24.9%,39%,87.6%,71.1%,0.5%,33.3%,–,–,–,–,–,–
CCn1c(=O)/c(=C/C=C2\Sc3ccccc3N2C)s/c1=C\c1sc2cc(OC(F)(F)F)ccc2[n+]1C.[Cl-],8.7%,27.1%,12.5%,60.9%,59.2%,Non-Toxic,48.6%,–,–,–,–,–,–
CCn1c(=O)/c(=C/C=C2\Sc3ccc(F)cc3N2C)s/c1=C\c1sc2ccc(F)cc2[n+]1C.[Cl-],56.4%,79.8%,57.5%,81.5%,87.9%,Non-Toxic,13.8%,–,–,–,–,161 nM,80 nM
CCn1c(=O)/c(=C/C=C2\Sc3cc(F)ccc3N2C)s/c1=C\c1sc2ccc(F)cc2[n+]1C.[Cl-],54.3%,93.4%,32.3%,93%,93%,Non-Toxic,20.7%,–,–,142 nM,–,–,85 nM
CCn1c(=O)/c(=C/C=C2\Sc3c(F)cccc3N2C)s/c1=C\c1sc2ccccc2[n+]1C.[Cl-],56.1%,92.7%,–,75.4%,47.9%,Non-Toxic,72.8%,–,–,272 nM,inactive,–,–
CCn1c(=O)/c(=C/C=C2\Sc3cc(C(F)(F)F)ccc3N2C)s/c1=C\c1sc2ccc(F)cc2[n+]1C.[Cl-],5.9%,39.2%,–,33.3%,68.4%,13.3%,52.2%,–,–,–,inactive,–,–
CCn1c(=O)/c(=C/C=C2\Sc3ccccc3N2C)s/c1=C\c1sc2cccc(F)c2[n+]1C.[Cl-],37.7%,64.1%,67.5%,92.9%,58.2%,Non-Toxic,24.9%,–,–,–,–,65 nM,–
CCn1c(=O)/c(=C/C=C2\Sc3ccccc3N2C)s/c1=C\c1sc2ccccc2[n+]1C.[Cl-],21%,70.8%,11.5%,81.5%,36.8%,Non-Toxic,19.2%,–,–,658 nM,–,302 nM,909 nM
CCn1c(=O)/c(=C/C=C2\Sc3ccc(F)cc3N2C)s/c1=C\c1sc2cc(F)ccc2[n+]1C.[Cl-],43.9%,75.9%,20.4%,79.3%,88.9%,Non-Toxic,21%,–,–,–,–,–,81 nM
CCn1c(=O)/c(=C/C=C2\Sc3ccc(F)cc3N2C)s/c1=C\c1sc2ccccc2[n+]1C.[Cl-],76.9%,89.2%,50.1%,90.4%,92.2%,Non-Toxic,37%,–,–,139 nM,–,133 nM,134 nM
CCn1c(=O)/c(=C/C=C2\Sc3cc(F)ccc3N2C)s/c1=C\c1sc2ccccc2[n+]1C.[Cl-],40.3%,87.8%,60%,96%,91.2%,Non-Toxic,61.8%,–,–,–,–,88 nM,223 nM
CCn1c(=O)/c(=C/C=C2\Sc3ccccc3N2C)s/c1=C\c1sc2cc(F)ccc2[n+]1C.[Cl-],57.1%,71.1%,85.7%,95.4%,78.5%,Non-Toxic,41.3%,–,–,–,–,40 nM,200 nM
C[C@@H]1[C@H](O)[C@@H](C)/C=C/C=C/C=C/C=C/C=C/C=C/C=C/[C@H](O[C@@H]2O[C@H](C)[C@@H](O)[C@H](N)[C@@H]2O)C[C@@H]2O[C@](O)(C[C@@H](O)C[C@@H](O)[C@H](O)CC[C@@H](O)C[C@@H](O)CC(=O)O[C@H]1C)C[C@H](O)[C@H]2C(=O)O [AMPHOTERICIN B],94.2%,97.5%,96.2%,96.7%,91.1%,Non-Toxic,16.7%,–,–,31 nM,–,23 nM,108 nM
CCn1c(=O)/c(=C/C=C2\Sc3ccccc3N2C)s/c1=C\c1sc2cc(F)c(F)cc2[n+]1C.[Cl-],80.6%,91.2%,61.6%,89.5%,92.8%,Non-Toxic,18.6%,–,–,106 nM,–,114 nM,77 nM
CCn1c(=O)/c(=C/C=C2\Sc3cccc(F)c3N2C)s/c1=C\c1sc2ccccc2[n+]1C.[Cl-],30%,73%,33%,84.2%,40.2%,Non-Toxic,13.4%,–,–,–,–,–,–
CCn1c(=O)/c(=C/C=C2\Sc3ccccc3N2C)s/c1=C\c1sc2ccc(F)cc2[n+]1C.Cc1ccc(S(=O)(=O)[O-])cc1,85.4%,89.5%,78.8%,91.7%,91%,Non-Toxic,31.1%,–,–,76 nM,–,98 nM,110 nM
